Source: patent publication US20240376435A1, “KIDNEY ORGANOID AND METHOD FOR PRODUCING SAME” (OTSUKA PHARMACEUTICAL CO., LTD., priority 2021, published 2024)

Legend:
[1] = tested on: PPARA downstream gene group; assay: Expression level of PPARA downstream gene group in kidney organoid (LTL MACS, quantitative PCR); type: cell-based, human; settings: agonist singly at 1 μM, eight days from day 15; among Control, CP1 and 9cisRA1 groups
Method: The kidney organoid was transferred to a centrifuge tube, and a cell dissociation solution (DPBS (+), 5 mg/mL Bacillus Licheniformis Protease (Sigma-Aldrich), 125 U/mL DNasc (Roche)) was added to the centrifuge tube. Up to 12 organoids were placed in one centrifuge tube. The centrifuge tube was incubated at 6° C. for 30 minutes. During the 30-minute incubation, pipetting was performed every five minutes to prepare a cell suspension containing cells separated from the organoids. To 1 mL of the obtained cell suspension, 4 mL of ice-cold diluted solution A (DPBS (−), 0.5% FBS, 2 mM EDTA, 125 U/mL DNase) was added. The centrifuge tube containing the diluted cell suspension was centrifuged at 300 rcf and 4° C. for 10 minutes, and the supernatant was removed. An ice-cooled diluted solution A was added to the precipitate for resuspension. […]
Total RNA was extracted from the obtained cell suspension containing LTL-positive proximal tubular cells with a Purelink RNA micro kit (Thermofisher Scientific Inc.). […] The synthesized cDNA was quantified by real-time PCR with TB Green® Premix Ex Taq™ II (Tli RNase H Plus) (TaKaRa Bio Inc.). Expression level analysis was performed using this quantitative PCR. […]

[2] = tested on: proximal tubule marker genes; assay: Expression level of proximal tubule marker genes in kidney organoid (LTL MACS, quantitative PCR); type: cell-based, human; settings: for expression levels of almost all proximal tubule marker genes: agonist singly at 1 μM, eight days from day 15, among Control, CP1 and 9cisRA1 groups; for expression levels of maturation markers of proximal tubular cells: ACE2, AQP6, CUBN
Method: The kidney organoid was transferred to a centrifuge tube, and a cell dissociation solution (DPBS (+), 5 mg/mL Bacillus Licheniformis Protease (Sigma-Aldrich), 125 U/mL DNasc (Roche)) was added to the centrifuge tube. Up to 12 organoids were placed in one centrifuge tube. The centrifuge tube was incubated at 6° C. for 30 minutes. During the 30-minute incubation, pipetting was performed every five minutes to prepare a cell suspension containing cells separated from the organoids. To 1 mL of the obtained cell suspension, 4 mL of ice-cold diluted solution A (DPBS (−), 0.5% FBS, 2 mM EDTA, 125 U/mL DNase) was added. The centrifuge tube containing the diluted cell suspension was centrifuged at 300 rcf and 4° C. for 10 minutes, and the supernatant was removed. An ice-cooled diluted solution A was added to the precipitate for resuspension. The cell suspension was centrifuged again and the precipitate was resuspended in the diluted solution A. The obtained cell suspension was transferred to a tube with a 35 μm filter (Falcon) and passed through the filter to prepare a cell suspension containing single cells.
LTL-biotin (1:50) was added to the prepared cell suspension containing single cells and incubated at 4° C. for 15 minutes. Thereafter, the cell suspension was centrifuged at 300 rcf and 4° C. for five minutes, and the supernatant was removed. An ice-cooled diluted solution A was added to the precipitate for resuspension. Centrifuging the cell suspension and obtaining a cell suspension from the precipitate were performed two more times. Anti-biotin microBeads Ultra-Pure was added to the obtained cell suspension in the diluted solution A and incubated at 4° C. for 15 minutes. Thereafter, the cell suspension was centrifuged at 300 ref and 4° C. for five minutes, and the supernatant was removed. The ice-cooled diluted solution A was added to the precipitate for resuspension. This operation was repeated two more times. From the obtained cell suspension in the diluted solution A, cells to which LTL binds (also referred to as LTL-binding cells or LTL-positive cells) were obtained by a MACS method. More specifically, the cell suspension was applied to an MS column (Miltenyi Biotec B.V. & Co. KG) fixed in a magnetic field, and LTL-positive proximal tubular cells were obtained as a positive fraction.
Total RNA was extracted from the obtained cell suspension containing LTL-positive proximal tubular cells with a Purelink RNA micro kit (Thermofisher Scientific Inc.). Using total RNA obtained as a template, cDNA synthesis was performed using PrimeScript™ RTmastermix (Perfect Real Time) (Takara Bio Inc.). The synthesized cDNA was quantified by real-time PCR with TB Green® Premix Ex Taq™ II (Tli RNase H Plus) (TaKaRa Bio Inc.). Expression level analysis was performed using this quantitative PCR.
On the 15th day of differentiation induction, the induction medium C was replaced with STEMdiff APEL2 medium (0.3 μM CP775146, 1 μM 9-cis retinoic acid, 1% PFHM II, Antibiotic-Antimycotic), and the obtained early kidney organoids were further cultured for eight days (until the 23rd day of differentiation induction).
On the 23rd day of differentiation induction, the degree of maturation of the proximal tubule was examined. The degree of maturation was determined based on the expression level of maturation markers of proximal tubular cells in the kidney organoid by the MACS method with LTL.
In the step C, CP1 group was prepared by culturing, for eight days, the kidney organoid on the 15th day of differentiation induction in STEMdiff APEL2 medium (1 μM CP775146, 1% PFHM II, Antibiotic-Antimycotic), which is a medium obtained by removing retinoic acid from the induction medium C. […]

SMILES	expression levels of almost all PPARA downstream gene groups [1]	expression levels of almost all proximal tubule marker genes [2]	further results
CC1=C(/C=C/C(C)=C\C=C\C(C)=C\C(=O)O)C(C)(C)CCC1 [9-cis retinoic acid]	No significant difference	No significant difference	–
CC(C)c1ccc(CC(=O)N2CCC[C@@H](c3cccc(OC(C)(C)C(=O)O)c3)C2)cc1 [CP775146]	No significant difference	No significant difference	–
CCC(=O)NC[C@H](Cc1ccc(OCCc2nc(-c3ccccc3)oc2C)cc1)N/C(C)=C\C(=O)c1ccc(C(F)(F)F)cc1 [GW6471]	–	–	expression levels of maturation markers of proximal tubular cells ([2]; Comparative Example 1, PPARA antagonist at a predetermined concentration in step C, vs control, UGT2A3, AZGP1, BHMT, LRP2, ABCB1, APOA1, APOC3, FABP1): significantly decreased; expression levels of SLC39A4 and CYP27A1 ([2]; Comparative Example 1, PPARA antagonist in step C, vs control): tendency for the expression levels of SLC39A4 (FIG. 12c) and CYP27A1 (FIG. 12l) to decrease; expression levels of maturation markers of proximal tubular cells ([2]; Comparative Example 2, RXR antagonist in step C, vs control, UGT2A3, AZGP1, SLC39A4, BHMT, LRP2, ABCB1, APOA1, APOC3, CYP27A1, FABP1): significantly decreased
Cc1cccc(Nc2cc(Cl)nc(SCC(=O)O)n2)c1C [pirinic acid]	–	–	expression of proximal tubule markers ([2]; Example 9, pirinic acid alone in step C, n=3): increased
